The structures appear in SMILES notation. pKi: −log10 of the molar value.

T2 sequence (P41595 whole entry): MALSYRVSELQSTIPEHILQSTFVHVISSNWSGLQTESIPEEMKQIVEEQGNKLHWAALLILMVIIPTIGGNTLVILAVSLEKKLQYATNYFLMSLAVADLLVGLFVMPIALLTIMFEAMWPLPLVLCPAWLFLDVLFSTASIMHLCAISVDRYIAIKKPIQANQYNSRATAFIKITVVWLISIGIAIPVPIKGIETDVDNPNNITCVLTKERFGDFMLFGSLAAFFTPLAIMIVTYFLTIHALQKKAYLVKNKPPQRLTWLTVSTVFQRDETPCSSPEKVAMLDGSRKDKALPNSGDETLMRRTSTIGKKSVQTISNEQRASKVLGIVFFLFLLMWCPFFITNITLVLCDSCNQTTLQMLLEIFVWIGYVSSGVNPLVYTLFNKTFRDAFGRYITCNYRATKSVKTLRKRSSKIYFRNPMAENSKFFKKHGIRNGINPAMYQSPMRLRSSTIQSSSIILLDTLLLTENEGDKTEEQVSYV
T1 sequence (P28223 whole entry): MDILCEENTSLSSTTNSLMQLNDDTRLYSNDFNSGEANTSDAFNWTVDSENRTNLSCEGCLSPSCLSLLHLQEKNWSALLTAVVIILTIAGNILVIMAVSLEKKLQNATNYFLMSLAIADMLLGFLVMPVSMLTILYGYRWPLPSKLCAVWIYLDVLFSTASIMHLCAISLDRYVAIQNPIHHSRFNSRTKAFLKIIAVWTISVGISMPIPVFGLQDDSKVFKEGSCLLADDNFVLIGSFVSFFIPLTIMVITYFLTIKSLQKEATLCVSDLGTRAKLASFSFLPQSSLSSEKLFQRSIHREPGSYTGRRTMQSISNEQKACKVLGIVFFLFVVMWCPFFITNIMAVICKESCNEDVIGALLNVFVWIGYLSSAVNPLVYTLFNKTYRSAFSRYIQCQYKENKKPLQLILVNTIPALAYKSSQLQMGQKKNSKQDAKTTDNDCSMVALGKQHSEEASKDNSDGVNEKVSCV
Chain of 5-hydroxytryptamine receptor 1B (Homo sapiens) (P28222 whole entry): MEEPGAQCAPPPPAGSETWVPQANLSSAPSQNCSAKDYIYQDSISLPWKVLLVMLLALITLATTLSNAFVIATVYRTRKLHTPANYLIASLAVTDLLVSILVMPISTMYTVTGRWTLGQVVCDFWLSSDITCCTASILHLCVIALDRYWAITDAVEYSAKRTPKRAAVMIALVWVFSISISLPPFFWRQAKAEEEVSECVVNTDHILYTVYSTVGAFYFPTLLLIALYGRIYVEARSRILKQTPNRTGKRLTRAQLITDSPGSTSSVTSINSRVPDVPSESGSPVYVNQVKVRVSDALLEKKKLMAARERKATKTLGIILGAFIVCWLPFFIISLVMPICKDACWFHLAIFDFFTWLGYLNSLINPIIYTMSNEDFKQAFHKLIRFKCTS
Chain of Adenosine receptor A2a (P29274 whole entry): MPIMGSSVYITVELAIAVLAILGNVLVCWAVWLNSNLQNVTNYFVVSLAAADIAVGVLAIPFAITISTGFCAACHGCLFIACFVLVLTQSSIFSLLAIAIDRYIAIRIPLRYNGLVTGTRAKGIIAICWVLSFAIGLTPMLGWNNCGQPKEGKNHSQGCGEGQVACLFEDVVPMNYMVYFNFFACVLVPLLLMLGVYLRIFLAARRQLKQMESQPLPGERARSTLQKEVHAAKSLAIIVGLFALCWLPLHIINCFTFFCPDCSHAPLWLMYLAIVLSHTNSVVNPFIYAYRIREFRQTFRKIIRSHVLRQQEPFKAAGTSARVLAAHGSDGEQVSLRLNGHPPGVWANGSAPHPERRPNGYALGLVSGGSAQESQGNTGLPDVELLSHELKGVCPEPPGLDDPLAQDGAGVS
Chain of 5-hydroxytryptamine receptor 7 (Homo sapiens) (P34969 whole entry): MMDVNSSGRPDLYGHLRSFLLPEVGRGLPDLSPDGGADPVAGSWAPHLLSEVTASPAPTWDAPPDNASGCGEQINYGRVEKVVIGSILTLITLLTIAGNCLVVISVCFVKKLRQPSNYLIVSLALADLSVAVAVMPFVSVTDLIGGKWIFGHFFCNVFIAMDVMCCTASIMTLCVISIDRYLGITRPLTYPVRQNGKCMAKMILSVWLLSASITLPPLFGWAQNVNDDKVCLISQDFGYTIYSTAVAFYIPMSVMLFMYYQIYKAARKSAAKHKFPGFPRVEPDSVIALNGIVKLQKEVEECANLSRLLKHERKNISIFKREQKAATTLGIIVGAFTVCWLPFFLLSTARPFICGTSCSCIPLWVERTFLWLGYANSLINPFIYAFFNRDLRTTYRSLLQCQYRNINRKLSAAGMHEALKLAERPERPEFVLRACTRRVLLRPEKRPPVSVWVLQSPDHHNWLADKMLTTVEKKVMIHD
Chain of 5-hydroxytryptamine receptor 1D (Homo sapiens) (P28221 whole entry): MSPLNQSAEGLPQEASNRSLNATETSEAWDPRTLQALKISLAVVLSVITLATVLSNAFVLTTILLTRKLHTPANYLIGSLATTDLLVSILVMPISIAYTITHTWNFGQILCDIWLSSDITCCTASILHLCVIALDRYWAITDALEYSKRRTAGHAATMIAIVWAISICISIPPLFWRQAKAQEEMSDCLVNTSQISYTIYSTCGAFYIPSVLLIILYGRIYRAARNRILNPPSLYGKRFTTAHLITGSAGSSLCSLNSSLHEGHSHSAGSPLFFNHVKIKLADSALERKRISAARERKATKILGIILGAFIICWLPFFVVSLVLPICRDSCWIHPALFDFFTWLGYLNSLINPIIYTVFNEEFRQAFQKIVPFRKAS

In the first assay the target is 5-hydroxytryptamine receptor 5A (Homo sapiens) (UniProt P47898). Description: Displacement of [3H]LSD from human 5-HT5A receptor expressed in Flp-In-CHO cell membranes incubated for 90 mins under dark condition by microbeta scintillation counting method relative to control. More on the design: concentration or dose not given beside the values.
Chain of 5-hydroxytryptamine receptor 5A (Homo sapiens) (P47898 whole entry): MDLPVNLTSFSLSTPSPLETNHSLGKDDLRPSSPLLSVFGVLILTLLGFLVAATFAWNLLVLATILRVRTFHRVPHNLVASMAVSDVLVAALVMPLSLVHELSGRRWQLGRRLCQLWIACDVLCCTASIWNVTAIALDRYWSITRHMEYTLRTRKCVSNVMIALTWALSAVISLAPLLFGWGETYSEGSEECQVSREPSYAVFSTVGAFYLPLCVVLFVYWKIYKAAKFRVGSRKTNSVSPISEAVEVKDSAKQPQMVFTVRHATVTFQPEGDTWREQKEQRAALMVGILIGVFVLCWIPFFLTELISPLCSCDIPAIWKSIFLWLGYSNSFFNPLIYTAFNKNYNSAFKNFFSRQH
Details: not given
In general terms: Displacement assays read how much labelled ligand stays bound in the presence of the test substance.
Usually inhibition stands for the drop in the measured response relative to a control, in per cent. As to `CNC(=O)[C@@]12C[C@@H]1[C@@H](n1cnc3c(N(C)C)nc(Cl)nc31)[C@H](O)[C@@H]2O`, the inhibition was < 50%.

The next assay addresses T1, 5-hydroxytryptamine receptor 2A (Homo sapiens, UniProt P28223). Nature of the assay: Displacement of [3H]ketanserin from human 5-HT2A receptor expressed in HEK-T cell membranes incubated for 90 mins under dark condition by microbeta scintillation counting method.
Details: not given
As a reminder, the pKi is the negative decadic logarithm of the Ki, by convention in mol/L. In the case of `CNC(=O)[C@@]12C[C@@H]1[C@@H](n1cnc3c(N(C)C)nc(Cl)nc31)[C@H](O)[C@@H]2O`, the pKi was < 5.00.

The next assay has as its target T2, 5-hydroxytryptamine receptor 2B (Homo sapiens, UniProt P41595).
Assay: not given
The settings on record: HEK293, at 10 µM.
For the compound `CNC(=O)[C@@]12C[C@@H]1[C@@H](n1cnc3c(N(C)C)nc(Cl)nc31)[C@H](O)[C@@H]2O`, the inhibition was > 50%.

In another assay the target is T3, Adenosine receptor A3 (Homo sapiens, UniProt P0DMS8).
T3 sequence (P0DMS8 whole entry): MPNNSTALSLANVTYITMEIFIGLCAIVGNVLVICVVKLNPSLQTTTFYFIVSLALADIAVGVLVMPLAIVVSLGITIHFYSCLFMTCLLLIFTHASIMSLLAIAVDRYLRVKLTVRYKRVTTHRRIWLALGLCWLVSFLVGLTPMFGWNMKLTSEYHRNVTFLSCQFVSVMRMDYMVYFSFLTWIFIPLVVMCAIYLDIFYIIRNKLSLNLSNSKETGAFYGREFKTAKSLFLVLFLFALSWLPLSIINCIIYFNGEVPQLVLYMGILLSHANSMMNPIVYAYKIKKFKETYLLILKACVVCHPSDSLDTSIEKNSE
Description: Displacement of [125l]N 6-(4-amino-3-iodobenzyl)adenosine-5'-N-methyluronamide from recombinant human A3AR expressed in CHO cell membranes after 60 mins by gamma counting method.
Details: not given
Regarding `CNC(=O)[C@@]12C[C@@H]1[C@@H](n1cnc3c(N(C)C)nc(Cl)nc31)[C@H](O)[C@@H]2O`, the pKi is 5.83.

The next assay concerns the target 5-hydroxytryptamine receptor 7 (Homo sapiens) (UniProt P34969). Nature of the assay: Displacement of [3H]LSD from human 5-HT7A receptor expressed in HEK cell membranes at 10 uM incubated for 90 mins under dark condition by microbeta scintillation counting method relative to control. The settings on record: HEK293.
`CNC(=O)[C@@]12C[C@@H]1[C@@H](n1cnc3c(N(C)C)nc(Cl)nc31)[C@H](O)[C@@H]2O`: the inhibition is < 50%.

The target in a further assay is T2, 5-hydroxytryptamine receptor 2B. Nature of the assay: biochemical. Type of assay: cell-based, HEK293.
Details: not given
As for `CNC(=O)[C@@]12C[C@@H]1[C@@H](n1cnc3c(N(C)C)nc(Cl)nc31)[C@H](O)[C@@H]2O`, the pKi was 5.68.

For another assay, the target named is T4, 5-hydroxytryptamine receptor 2C (Homo sapiens, UniProt P28335).
T4 sequence (P28335 whole entry): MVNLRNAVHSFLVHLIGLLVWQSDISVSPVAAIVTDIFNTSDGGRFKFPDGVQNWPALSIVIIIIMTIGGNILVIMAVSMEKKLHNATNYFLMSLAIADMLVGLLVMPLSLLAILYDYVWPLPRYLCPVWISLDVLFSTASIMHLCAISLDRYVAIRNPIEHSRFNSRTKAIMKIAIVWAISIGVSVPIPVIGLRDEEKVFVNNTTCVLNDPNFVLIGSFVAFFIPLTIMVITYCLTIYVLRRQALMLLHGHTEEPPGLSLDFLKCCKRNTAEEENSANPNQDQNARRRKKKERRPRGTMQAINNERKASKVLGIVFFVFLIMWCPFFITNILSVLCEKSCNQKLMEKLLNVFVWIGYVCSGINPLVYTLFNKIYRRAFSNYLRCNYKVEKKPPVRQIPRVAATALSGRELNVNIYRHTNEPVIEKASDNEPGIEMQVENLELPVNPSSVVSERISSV
Nature of the assay: Displacement of [3H]mesulergine from human 5-HT2CR expressed in Flp-In HEK cell membranes incubated for 90 mins under dark condition by microbeta scintillation counting method. More on the design: species or system HEK293.
Details: not given
Take `CNC(=O)[C@@]12C[C@@H]1[C@@H](n1cnc3c(N(C)C)nc(Cl)nc31)[C@H](O)[C@@H]2O`: the pKi is 5.37.

For the next assay, the target named is T1, 5-hydroxytryptamine receptor 2A. Description: Displacement of [3H]ketanserin from human 5-HT2A receptor expressed in HEK-T cell membranes at 10 uM incubated for 90 mins under dark condition by microbeta scintillation counting method relative to control.
Details: not given
Turning to `CNC(=O)[C@@]12C[C@@H]1[C@@H](n1cnc3c(N(C)C)nc(Cl)nc31)[C@H](O)[C@@H]2O`, the inhibition is < 10%.

For another assay, the target named is T5, 5-hydroxytryptamine receptor 3A (Homo sapiens) (UniProt P46098).
T5 sequence (whole entry): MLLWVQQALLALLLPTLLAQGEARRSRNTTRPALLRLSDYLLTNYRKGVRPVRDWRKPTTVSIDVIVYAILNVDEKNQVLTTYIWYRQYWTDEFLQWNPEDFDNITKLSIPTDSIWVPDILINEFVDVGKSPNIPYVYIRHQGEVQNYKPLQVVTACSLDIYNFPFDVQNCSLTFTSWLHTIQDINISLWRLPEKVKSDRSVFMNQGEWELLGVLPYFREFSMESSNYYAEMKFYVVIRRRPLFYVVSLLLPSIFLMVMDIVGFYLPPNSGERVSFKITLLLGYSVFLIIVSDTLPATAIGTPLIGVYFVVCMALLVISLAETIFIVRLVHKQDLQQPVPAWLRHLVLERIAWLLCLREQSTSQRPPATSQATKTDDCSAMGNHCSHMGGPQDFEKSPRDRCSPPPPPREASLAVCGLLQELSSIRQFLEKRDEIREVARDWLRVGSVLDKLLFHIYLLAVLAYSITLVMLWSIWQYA
Description: Displacement of [3H]GR65630 from human 5-HT3 receptor expressed in HEK-T cell membranes at 10 uM incubated for 90 mins under dark condition by microbeta scintillation counting method relative to control.
Details: not given
`CNC(=O)[C@@]12C[C@@H]1[C@@H](n1cnc3c(N(C)C)nc(Cl)nc31)[C@H](O)[C@@H]2O`: the inhibition was < 50%.

For another assay, the target named is 5-hydroxytryptamine receptor 4 (Homo sapiens) (UniProt Q13639). Description: Displacement of [3H]GR113808 from human 5-HT4 receptor at 10 uM incubated for 90 mins under dark condition by microbeta scintillation counting method relative to control.
Chain of 5-hydroxytryptamine receptor 4 (Homo sapiens) (Q13639 whole entry): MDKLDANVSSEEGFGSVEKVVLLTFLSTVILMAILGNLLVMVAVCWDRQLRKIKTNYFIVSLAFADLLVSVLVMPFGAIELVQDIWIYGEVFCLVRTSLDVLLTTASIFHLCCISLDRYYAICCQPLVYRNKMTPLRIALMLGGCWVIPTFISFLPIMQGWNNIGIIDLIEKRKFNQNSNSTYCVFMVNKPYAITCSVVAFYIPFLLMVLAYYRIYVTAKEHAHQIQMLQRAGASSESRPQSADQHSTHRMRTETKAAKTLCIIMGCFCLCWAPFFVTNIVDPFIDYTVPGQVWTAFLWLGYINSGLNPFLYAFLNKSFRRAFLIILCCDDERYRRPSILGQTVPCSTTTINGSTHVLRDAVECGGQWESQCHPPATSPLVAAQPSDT
Details: not given
For `CNC(=O)[C@@]12C[C@@H]1[C@@H](n1cnc3c(N(C)C)nc(Cl)nc31)[C@H](O)[C@@H]2O`, the inhibition is < 50%.

In the next assay the target is T6, 5-hydroxytryptamine receptor 2C (Homo sapiens) (UniProt P28335).
T6 sequence (whole entry): T4 sequence (P28335 whole entry)
Description: Displacement of [3H]mesulergine from human 5-HT2CR expressed in Flp-In HEK cell membranes at 10 uM incubated for 90 mins under dark condition by microbeta scintillation counting method relative to control. The conditions noted are these: HEK293.
Turning to `CNC(=O)[C@@]12C[C@@H]1[C@@H](n1cnc3c(N(C)C)nc(Cl)nc31)[C@H](O)[C@@H]2O`, the inhibition is > 50%.

The target of another assay is 5-hydroxytryptamine receptor 1E (Homo sapiens) (UniProt P28566). Description: Displacement of [3H]5-HT from human 5-HT1E receptor expressed in HEK cell membranes at 10 uM incubated for 90 mins under dark condition by microbeta scintillation counting method relative to control. The settings on record: HEK293.
Chain of 5-hydroxytryptamine receptor 1E (Homo sapiens) (P28566 whole entry): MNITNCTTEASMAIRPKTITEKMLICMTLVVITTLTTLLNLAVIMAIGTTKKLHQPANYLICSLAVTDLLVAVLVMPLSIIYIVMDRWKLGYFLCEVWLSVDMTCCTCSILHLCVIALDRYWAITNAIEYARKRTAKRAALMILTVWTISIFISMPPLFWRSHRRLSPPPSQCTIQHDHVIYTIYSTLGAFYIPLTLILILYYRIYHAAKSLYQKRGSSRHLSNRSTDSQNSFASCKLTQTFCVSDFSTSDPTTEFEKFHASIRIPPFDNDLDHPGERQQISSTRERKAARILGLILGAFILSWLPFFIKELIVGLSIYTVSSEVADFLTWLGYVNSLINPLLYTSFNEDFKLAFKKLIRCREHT
As to `CNC(=O)[C@@]12C[C@@H]1[C@@H](n1cnc3c(N(C)C)nc(Cl)nc31)[C@H](O)[C@@H]2O`, the inhibition is < 50%.

Another assay has as its target 5-hydroxytryptamine receptor 1D (Homo sapiens) (UniProt P28221). Nature of the assay: Displacement of [3H]5-CT from human 5-HT1D receptor expressed in HEK-T cell membranes at 10 uM incubated for 90 mins under dark condition by microbeta scintillation counting method relative to control.
Details: not given
Take `CNC(=O)[C@@]12C[C@@H]1[C@@H](n1cnc3c(N(C)C)nc(Cl)nc31)[C@H](O)[C@@H]2O`: the inhibition was < 50%.

The next assay concerns the target T7, 5-hydroxytryptamine receptor 1A (Homo sapiens) (UniProt P08908).
T7 sequence (whole entry): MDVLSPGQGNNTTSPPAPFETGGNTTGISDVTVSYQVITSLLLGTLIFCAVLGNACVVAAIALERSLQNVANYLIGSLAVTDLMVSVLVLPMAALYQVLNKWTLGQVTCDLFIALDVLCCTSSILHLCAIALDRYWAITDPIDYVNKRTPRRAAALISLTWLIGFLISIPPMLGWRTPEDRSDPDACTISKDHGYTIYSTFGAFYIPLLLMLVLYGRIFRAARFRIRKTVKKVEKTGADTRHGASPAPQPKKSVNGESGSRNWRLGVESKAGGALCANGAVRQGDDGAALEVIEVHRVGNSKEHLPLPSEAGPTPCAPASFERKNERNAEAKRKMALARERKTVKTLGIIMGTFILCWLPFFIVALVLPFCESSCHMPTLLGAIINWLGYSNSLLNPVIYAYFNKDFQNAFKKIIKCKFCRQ
Description: Displacement of [3H]WAY100635 from human 5-HT1AR expressed in CHO cell membranes at 10 uM incubated for 90 mins under dark condition by microbeta scintillation counting method relative to control.
Details: not given
Regarding `CNC(=O)[C@@]12C[C@@H]1[C@@H](n1cnc3c(N(C)C)nc(Cl)nc31)[C@H](O)[C@@H]2O`, the inhibition is < 50%.

The next assay has as its target Adenosine receptor A2a (Homo sapiens, UniProt P29274). Description: Displacement of [3 H]2-[p-(2-carboxyethyl)phenyl-ethylamino]-5'-N-ethylcarboxamidoadenosine from recombinant human adenosine receptor A2A expressed in HEK293 cell membranes at 10 uM after 60 mins by liquid scintillation counting method relative to control.
Details: not given
For `CNC(=O)[C@@]12C[C@@H]1[C@@H](n1cnc3c(N(C)C)nc(Cl)nc31)[C@H](O)[C@@H]2O`, the inhibition was < 10%.

Another assay concerns the target 5-hydroxytryptamine receptor 1B (Homo sapiens) (UniProt P28222). Nature of the assay: Displacement of [3H]5-CT from human 5-HT1BR expressed in HEK cell membranes at 10 uM incubated for 90 mins under dark condition by microbeta scintillation counting method relative to control. The settings on record: HEK293.
For `CNC(=O)[C@@]12C[C@@H]1[C@@H](n1cnc3c(N(C)C)nc(Cl)nc31)[C@H](O)[C@@H]2O`, the inhibition is < 50%.

For a further assay, the target named is 5-hydroxytryptamine receptor 6 (Homo sapiens) (UniProt P50406). Nature of the assay: Displacement of [3H]LSD from human 5-HT6 receptor expressed in HEK cell membranes at 10 uM incubated for 90 mins under dark condition by microbeta scintillation counting method relative to control. The settings on record: HEK293.
Chain of 5-hydroxytryptamine receptor 6 (Homo sapiens) (P50406 whole entry): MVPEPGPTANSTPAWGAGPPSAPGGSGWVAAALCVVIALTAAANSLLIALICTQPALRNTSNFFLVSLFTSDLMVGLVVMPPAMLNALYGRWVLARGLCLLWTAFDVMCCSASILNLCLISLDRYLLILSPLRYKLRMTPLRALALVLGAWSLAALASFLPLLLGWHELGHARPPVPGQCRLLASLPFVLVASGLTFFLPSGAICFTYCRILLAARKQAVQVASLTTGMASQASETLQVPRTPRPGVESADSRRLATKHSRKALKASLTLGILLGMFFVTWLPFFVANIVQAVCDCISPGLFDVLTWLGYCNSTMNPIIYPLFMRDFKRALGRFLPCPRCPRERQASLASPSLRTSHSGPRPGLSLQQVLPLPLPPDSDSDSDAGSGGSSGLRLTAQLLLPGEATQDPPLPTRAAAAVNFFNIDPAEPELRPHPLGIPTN
As for `CNC(=O)[C@@]12C[C@@H]1[C@@H](n1cnc3c(N(C)C)nc(Cl)nc31)[C@H](O)[C@@H]2O`, the inhibition was < 50%.

In the next assay the target is T8, Adenosine receptor A1 (Homo sapiens) (UniProt P30542).
T8 sequence (whole entry): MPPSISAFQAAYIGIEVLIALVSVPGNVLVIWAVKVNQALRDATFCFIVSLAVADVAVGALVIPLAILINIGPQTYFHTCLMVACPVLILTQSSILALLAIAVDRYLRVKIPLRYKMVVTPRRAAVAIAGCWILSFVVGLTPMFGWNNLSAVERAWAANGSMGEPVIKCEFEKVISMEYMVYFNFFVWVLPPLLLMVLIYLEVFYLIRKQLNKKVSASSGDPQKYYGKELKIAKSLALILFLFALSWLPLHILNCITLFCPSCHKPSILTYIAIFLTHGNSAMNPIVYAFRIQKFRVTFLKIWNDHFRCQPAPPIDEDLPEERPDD
Nature of the assay: Displacement of [3H]N6-phenylisopropyladenosine from recombinant human A1AR expressed in CHO cell membranes at 10 uM after 60 mins by liquid scintillation counting method relative to control.
Details: not given
Take `CNC(=O)[C@@]12C[C@@H]1[C@@H](n1cnc3c(N(C)C)nc(Cl)nc31)[C@H](O)[C@@H]2O`: the inhibition was 26%.

The record behind these values is ChEMBL document CHEMBL3862033 (J Med Chem, 2016).
